In patent US20150065440A1 (Progen Pharmaceuticals Limited, priority 2007, published 2015):
Structures can show the parent of a compound that is named as a salt.

How the values were obtained:
[1] = biological target: T1, VEGF (Homo sapiens, UniProt P15692); test: Growth factor binding assay (SPR solution affinity), VEGF; settings: HBS-EP buffer, 25° C.
T1 sequence (P15692 207-395): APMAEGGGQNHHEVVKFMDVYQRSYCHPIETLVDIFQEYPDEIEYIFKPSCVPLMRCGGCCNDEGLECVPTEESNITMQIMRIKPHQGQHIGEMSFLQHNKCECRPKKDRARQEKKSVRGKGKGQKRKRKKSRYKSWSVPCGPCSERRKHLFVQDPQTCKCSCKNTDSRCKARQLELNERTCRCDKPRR
Method: (§1) Binding affinities of compounds for the growth factors FGF-1, FGF-2 and VEGF were measured using a surface plasmon resonance (SPR) based solution affinity assay.^9 Heparin-coated sensorchips used for this assay were prepared via immobilisation of biotinylated BSA-heparin on a streptavidin-coated sensorchip, or via aldehyde coupling using either adipic acid dihydrazide or 1,4-diaminobutane.^9 For each Kd measurement, solutions were prepared containing a fixed concentration of protein and varying concentrations of the ligand in buffer. Ligands binding to FGF-1 and VEGF were measured in HBS-EP buffer (10 mM HEPES, pH 7.4, 150 mM NaCl, 3.0 mM EDTA and 0.005% (v/v) polysorbate 20), while binding to FGF-2 was measured in HBS-EP buffer containing 0.3 M NaCl. Prior to injection, samples were maintained at 4° C. to maximise protein stability. For each assay mixture, 50-200 μL of solution was injected at 5-40 μL/min and the relative binding response measured. All surface binding experiments were performed at 25° C. The surface was regenerated by injection of 40 μL of 4M NaCl at 40 μL/min, followed by injection of 40 μL of buffer at 40 μL/min.
(§2) Sensorgram data were analysed using the BIAevaluation software (BIAcore) and Kd values determined as previously described.^9 Where Kd values were measured in duplicate, the values represent the average of the duplicate measurements.

[2] = biological target: FGF-1 (Homo sapiens, UniProt P05230); test: Growth factor binding assay (SPR solution affinity), FGF-1; settings: SPR, HBS-EP buffer, 25° C.; read-out: Kd FGF-1
Method: as §1, §2

[3] = test system: pooled normal human plasma; test: Anticoagulant activity, APTT; settings: 0.1 mg/mL in normal pooled human plasma
Method: APTT measurements were performed on a STAGO STA-Compact Coagulation Analyser using standard protocols according to the manufacturer's instructions. Unfractionated heparin (UFH) was used as a control.

[4] = test system: normal pooled human plasma; test: Anticoagulant activity, Heptest; settings: 0.1 mg/mL in normal pooled human plasma
[5] = biological target: FGF-2 (Homo sapiens, UniProt P09038); test: Growth factor binding assay (SPR solution affinity), FGF-2; settings: SPR, HBS-EP buffer containing 0.3 M NaCl, 25° C.; read-out: Kd FGF-2
Method: as §1, §2

[6] = biological target: T2, recombinant human heparanase (Homo sapiens, UniProt Q9Y251); test: Heparanase inhibition assay (fondaparinux cleavage, WST-1); settings: read-out: Ki Heparanase; IC50 converted into Ki; fondaparinux 100 μM, pH 5.0
T2 sequence (Q9Y251 158-543 limits assumed): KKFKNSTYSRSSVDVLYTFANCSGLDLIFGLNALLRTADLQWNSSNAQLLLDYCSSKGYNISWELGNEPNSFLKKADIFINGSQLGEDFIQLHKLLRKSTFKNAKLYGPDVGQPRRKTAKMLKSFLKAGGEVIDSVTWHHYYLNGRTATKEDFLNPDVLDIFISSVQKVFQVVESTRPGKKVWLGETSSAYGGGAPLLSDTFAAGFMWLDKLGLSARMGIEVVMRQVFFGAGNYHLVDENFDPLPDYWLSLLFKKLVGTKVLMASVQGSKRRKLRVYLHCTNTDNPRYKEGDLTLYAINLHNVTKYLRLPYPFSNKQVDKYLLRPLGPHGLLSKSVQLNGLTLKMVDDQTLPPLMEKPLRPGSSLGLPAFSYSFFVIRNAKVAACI
T2 sequence (Q9Y251 36-109 limits assumed): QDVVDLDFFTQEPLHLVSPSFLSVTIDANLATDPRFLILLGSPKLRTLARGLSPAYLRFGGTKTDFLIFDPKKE
Method: In the presence of an inhibitor the catalytic activity of heparanase is reduced, and the amount of disaccharide produced and the optical density of the solution are both decreased. The percent inhibition and IC50 of the inhibitor are determined from measurement of the optical density (OD) over a range of inhibitor concentrations.
Assays were carried out in 40 mM sodium acetate buffer, pH 5.0, as follows. […] A blue colour was developed by incubation of the plates at 60° C. for 60 min. […] The IC50 value for each compound was evaluated and converted into a Ki (inhibition constant) using the expression

FGF-2, sequence (P09038 143-288, species assumed): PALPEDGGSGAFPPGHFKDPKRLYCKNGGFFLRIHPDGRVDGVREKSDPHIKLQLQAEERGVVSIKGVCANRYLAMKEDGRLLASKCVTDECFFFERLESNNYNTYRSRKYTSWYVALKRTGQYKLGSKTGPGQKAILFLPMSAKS
FGF-1, sequence (P05230 whole entry, species assumed): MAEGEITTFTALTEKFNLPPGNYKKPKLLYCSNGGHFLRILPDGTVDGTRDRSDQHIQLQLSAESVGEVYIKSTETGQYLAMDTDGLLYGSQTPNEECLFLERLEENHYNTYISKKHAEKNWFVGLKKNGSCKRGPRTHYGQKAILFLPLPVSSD

SMILES | Kd [1] | Kd [2] | APTT [3] | Heptest [4] | Kd [5] | Ki [6]
CC(C)CCCC(C)C1CCC2C3CC=C4CC(OC5OC(COS(=O)(=O)O)C(OS(=O)(=O)O)C(OS(=O)(=O)O)C5OC5OC(COS(=O)(=O)O)C(OS(=O)(=O)O)C(OC6OC(COS(=O)(=O)O)C(OS(=O)(=O)O)C(OC7OC(COS(=O)(=O)O)C(OS(=O)(=O)O)C(OS(=O)(=O)O)C7OS(=O)(=O)O)C6OS(=O)(=O)O)C5OS(=O)(=O)O)CCC4(C)C3CCC12C [Compound 17, 3β-Cholesteryl 2,3,4,6-tetra-O-sodium sulfonato-α-D-mannopyranosyl-(1→3)-2,4,6-tri-O-sodium sulfonato-α-D-mannopyranosyl-(1→3)-2,4,6-tri-O-sodium sulfonato-α-D-mannopyranosyl-(1→2)-3,4,6-tri-O-sodium sulfonato-α-D-mannopyranoside] | 24 ± 6 nM | 3.2 ± 0.5 nM | – | – | – | –
CCCCCCCCCCCCCCCCCC(=O)NCCCOC1OC(COS(=O)(=O)O)C(OS(=O)(=O)O)C(OS(=O)(=O)O)C1OC1OC(COS(=O)(=O)O)C(OS(=O)(=O)O)C(OC2OC(COS(=O)(=O)O)C(OS(=O)(=O)O)C(OC3OC(COS(=O)(=O)O)C(OS(=O)(=O)O)C(OS(=O)(=O)O)C3OS(=O)(=O)O)C2OS(=O)(=O)O)C1OS(=O)(=O)O [Compound 24, 3-Stearamidopropyl 2,3,4,6-tetra-O-sodium sulfonato-α-D-mannopyranosyl-(1→3)-2,4,6-tri-O-sodium sulfonato-α-D-mannopyranosyl-(1→3)-2,4,6-tri-O-sodium sulfonato-α-D-mannopyranosyl-(1→2)-3,4,6-tri-O-sodium sulfonato-α-D-mannopyranoside] | 40 ± 17 nM | 0.44 ± 0.04 nM | 68.1 s | 24.5 s | 108 ± 11 nM | 6 ± 2.1 nM
CC(C)CCCC(C)C1CCC2C3CCC4CC(OC5OC(COS(=O)(=O)O)C(OS(=O)(=O)O)C(OS(=O)(=O)O)C5OC5OC(COS(=O)(=O)O)C(OS(=O)(=O)O)C(OC6OC(COS(=O)(=O)O)C(OS(=O)(=O)O)C(OC7OC(COS(=O)(=O)O)C(OS(=O)(=O)O)C(OC8OC(COS(=O)(=O)O)C(OS(=O)(=O)O)C(OS(=O)(=O)O)C8OS(=O)(=O)O)C7OS(=O)(=O)O)C6OS(=O)(=O)O)C5OS(=O)(=O)O)CCC4(C)C3CCC12C [Compound 27, 3β-Cholestanyl 2,3,4,6-tetra-O-sodium sulfonato-α-D-mannopyranosyl-(1→3)-2,4,6-tri-O-sodium sulfonato-α-D-mannopyranosyl-(1→3)-2,4,6-tri-O-sodium sulfonato-α-D-mannopyranosyl-(1→3)-2,4,6-tri-O-sodium sulfonato-α-D-mannopyranosyl-(1→2)-3,4,6-tri-O-sodium sulfonato-α-D-mannopyranoside] | 1.04 ± 0.19 nM | 0.24 ± 0.1 nM | 63.3 s | 29.6 s | 39 ± 6 nM | 5.5 ± 2.6 nM
CC(C)CCCC(C)C1CCC2C3CCC4CC(OC5OC(COS(=O)(=O)O)C(OS(=O)(=O)O)C(OS(=O)(=O)O)C5OC5OC(COS(=O)(=O)O)C(OS(=O)(=O)O)C(OC6OC(COS(=O)(=O)O)C(OS(=O)(=O)O)C(OS(=O)(=O)O)C6OS(=O)(=O)O)C5OS(=O)(=O)O)CCC4(C)C3CCC12C [Compound 39, 3β-Cholestanyl 2,3,4,6-tetra-O-sodium sulfonato-α-D-mannopyranosyl-(1→3)-2,4,6-tri-O-sodium sulfonato-α-D-mannopyranosyl-(1→2)-3,4,6-tri-O-sodium sulfonato-α-D-mannopyranoside] | 319 ± 19 nM | 18.5 ± 1.8 nM | 50.7 s | 27.3 s | 631 ± 4 nM | 6.4 ± 2.5 nM
CCCCCCCCCCCCCCCCCC(=O)NCCCOC1OC(COS(=O)(=O)O)C(OS(=O)(=O)O)C(OS(=O)(=O)O)C1OC1OC(COS(=O)(=O)O)C(OS(=O)(=O)O)C(OC2OC(COS(=O)(=O)O)C(OS(=O)(=O)O)C(OC3OC(COS(=O)(=O)O)C(OS(=O)(=O)O)C(OC4OC(COS(=O)(=O)O)C(OS(=O)(=O)O)C(OS(=O)(=O)O)C4OS(=O)(=O)O)C3OS(=O)(=O)O)C2OS(=O)(=O)O)C1OS(=O)(=O)O [Compound 44, 3-Stearamidopropyl 2,3,4,6-tetra-O-sodium sulfonato-α-D-mannopyranosyl-(1→3)-2,4,6-tri-O-sodium sulfonato-α-D-mannopyranosyl-(1→3)-2,4,6-tri-O-sodium sulfonato-α-D-mannopyranosyl-(1→3)-2,4,6-tri-O-sodium sulfonato-α-D-mannopyranosyl-(1→2)-3,4,6-tri-O-sodium sulfonato-α-D-mannopyranoside] | 2.7 ± 0.5 nM | 0.17 ± 0.07 nM | 217.0 s | 58.5 s | 80 ± 40 nM | 4.4 ± 1.4 nM
CC(C)CCCC(C)C1CCC2C3CCC4CC(OCc5cn(CCCOC6OC(COS(=O)(=O)O)C(OS(=O)(=O)O)C(OS(=O)(=O)O)C6OC6OC(COS(=O)(=O)O)C(OS(=O)(=O)O)C(OC7OC(COS(=O)(=O)O)C(OS(=O)(=O)O)C(OS(=O)(=O)O)C7OS(=O)(=O)O)C6OS(=O)(=O)O)nn5)CCC4(C)C3CCC12C [Compound 48, 3-{4-(Cholestan-3β-yl-oxymethyl)-[1,2,3]triazol-1-yl}propyl 2,3,4,6-tetra-O-sodium sulfonato-α-D-mannopyranosyl-(1→3)-2,4,6-tri-O-sodium sulfonato-α-D-mannopyranosyl-(1→2)-3,4,6-tri-O-sodium sulfonato-α-D-mannopyranoside] | 460 ± 30 nM | 22.6 ± 1 nM | 73.3 s | 33.1 s | 480 ± 40 nM | 8.5 ± 0.14 nM
CC(C)CCCC(C)C1CCC2C3CCC4CC(OC5OC(COC6OC(COS(=O)(=O)O)C(OC7OC(COS(=O)(=O)O)C(OC8OC(COS(=O)(=O)O)C(OS(=O)(=O)O)C(OS(=O)(=O)O)C8OS(=O)(=O)O)C(OS(=O)(=O)O)C7OS(=O)(=O)O)C(OS(=O)(=O)O)C6OS(=O)(=O)O)C(OS(=O)(=O)O)C(OS(=O)(=O)O)C5OS(=O)(=O)O)CCC4(C)C3CCC12C [Compound 119, 3′-Cholestanyl 2,3,4,6-tetra-O-sulfo-α-D-glucopyranosyl-(1→4)-2,3,6-tri-O-sulfo-α-D-glucopyranosyl-(1→4)-2,3,6-tri-O-sulfo-β-D-glucopyranosyl-(1→6)-2,3,4-tri-O-sulfo-α-D-mannopyranoside, tridecasodium salt] | 7.9 ± 0.7 nM | 5.9 ± 1.6 nM | 57.1 s | 28.6 s | 286 ± 25 nM | –
CC(C)CCCC(C)C1CCC2C3CCC4CC(OCC(=O)NC5OC(COS(=O)(=O)O)C(OC6OC(COS(=O)(=O)O)C(OC7OC(COS(=O)(=O)O)C(OS(=O)(=O)O)C(OS(=O)(=O)O)C7OS(=O)(=O)O)C(OS(=O)(=O)O)C6OS(=O)(=O)O)C(OS(=O)(=O)O)C5OS(=O)(=O)O)CCC4(C)C3CCC12C (stereo not shown) [Compound 134] | 1080 ± 200 nM | 13 ± 3 nM | – | – | 630 ± 30 nM | –
CC(C)CCCC(C)C1CCC2C3CCC4CC(OC(C(OS(=O)(=O)[O-])C(OS(=O)(=O)O)C(OC5OC(COS(=O)(=O)O)C(OC6OC(COS(=O)(=O)O)C(OC7OC(COS(=O)(=O)O)C(OS(=O)(=O)O)C(OS(=O)(=O)O)C7OS(=O)(=O)O)C(OS(=O)(=O)O)C6OS(=O)(=O)O)C(OS(=O)(=O)O)C5OS(=O)(=O)O)C(COS(=O)(=O)O)OS(=O)(=O)O)[n+]5ccccc5)CCC4(C)C3CCC12C [Compound 140, 3′-Cholestanyl 2,3,4,6-tetra-O-sulfo-α-D-glucopyranosyl-(1→4)-2,3,6-tri-O-sulfo-α-D-glucopyranosyl-(1→4)-2,3,6-tri-O-sulfo-α-D-glucopyranosyl-(1→4)-((1-pyridinium-1-yl)-2,3,5,6-tetra-O-sulfo-D-glucoside, tridecasodium salt] | 12 ± 2 nM | 1.3 ± 0.6 nM | – | – | 380 ± 40 nM | –
